In brackets after ≈: the same amount, converted by molar mass.
Target: alpha-glucosidase (Saccharomyces cerevisiae)
Experiment: Inhibition of Saccharomyces cerevisiae alpha-glucosidase assessed as release of p-nitrophenol using pNPG as substrate preincubated for 15 mins followed by substrate addition and measured after 15 mins by plate reader analysis

Row | IC50 [mg/L] | Structure (SMILES)
1 | 28 (≈ 108 µM) | COc1ccc(O)c2c(=O)c3cc(O)ccc3oc12 [CHEBI:67553]
2 | 3.2 (≈ 13.1 µM) | O=c1c2cc(O)ccc2oc2cc(O)cc(O)c12 [1,3,7-trihydroxy-9H-xanthen-9-one]
3 | 7.6 (≈ 27.7 µM) | COc1c(O)cc2oc3ccc(O)cc3c(=O)c2c1O
4 | 13 (≈ 47.4 µM) | COc1c(O)cc(O)c2c(=O)c3cc(O)ccc3oc12

Second part, the compound before the results:

Row | Structure (SMILES) | IC50 [mg/L]
5 | COc1cc(OC)c2c(=O)c3c(O)c(OC)ccc3oc2c1O | 59 (≈ 185 µM)
6 | COc1cc(O)c2c(=O)c3cc(O)ccc3oc2c1OC | 13 (≈ 45.1 µM)
7 | COc1c(O)cc2oc3ccc(O)c(OC)c3c(=O)c2c1O | 63 (≈ 207 µM)
8 | COc1ccc2oc3ccc(O)cc3c(=O)c2c1OC | 49 (≈ 180 µM)
9 | COc1ccc2oc3ccc(O)cc3c(=O)c2c1 | 77 (≈ 318 µM)
10 | O=c1c2cc(O)ccc2oc2cccc(O)c12 [CHEBI:4946] | 36 (≈ 158 µM)
